Data on 20 compounds can be found in patent publication US20240132525A1, “BORON […], CO[…], METHODS AND USES THEREOF” (priority 2022, published 2024).

In one data set the target is JAK1 (Homo sapiens (Human), UniProt P23458). In words: Biochemical kinase assay (33P-ATP filter-binding), JAK1. The settings on record: read-out: IC50 JAK1. The text has this: (§1) Biochemical Kinase Assay Protocol (JAK)
(§2) Reaction Procedure: • 1. […] Detected kinase activity by filter-binding method.

For the next data set, the target named is JAK2 (Homo sapiens (Human), UniProt O60674). The data set is described as follows: Biochemical kinase assay (33P-ATP filter-binding), JAK2. As to conditions: read-out: IC50 JAK2.
Text: as §1, §2

In another data set the test system is IL-4/pSTAT6. In words: Cytokine function assay IL-4/pSTAT6 in PBMC. The class given is cell-based. As to the method:
(§3) Cytokine Function Assay Protocols for IL-4/pSTAT6 and GM-CSF/pSTAT5
IL-4/pSTAT6: • PBMC from a healthy donor was plated onto a 96 w plate. Compound was added and incubated for 1 hour (at 37° C.). After 1 hour, cells were stimulated with IL-4 for 15 minutes. Cells were fixed and stained with anti-pSTAT6 antibody. After staining, cells were read on a Beckman-Coulter CytoFLEX.

Data set [1] is described as follows: Dog LM (liver microsome) assay. The data set is classed as in vitro ADME. As to conditions: predicted clearance as percent of liver blood flow. How it is done:
Dog LM (Liver Microsome) Assay
The metabolic degradation of the test compound is assayed at 37° C. with pooled liver microsomes from dogs (Beagle). The final incubation volume of 100 μl per time point contains TRIS buffer pH 7.6 at RT (0.1 M), magnesium chloride (5 mM), microsomal protein (1 mg/ml) and the test compound at a final concentration of 1 μM. Following a short preincubation period at 37° C., the reactions were initiated by addition of beta-nicotinamide adenine dinucleotide phosphate, reduced form (NADPH, 1 mM) and terminated by transferring an aliquot into solvent after different time points. Additionally, the NADPH-independent degradation was monitored in incubations without NADPH, terminated at the last time point. The [%] remaining test compound after NADPH independent incubation is reflected by the parameter c (control) (metabolic stability). The quenched incubations are pelleted by centrifugation (10000 g, 5 min). An aliquot of the supernatant is assayed by LC-MS/MS for the amount of parent compound. The half-life (t½ INVITRO) is determined by the slope of the semilogarithmic plot of the concentration-time profile. The intrinsic clearance (CL_[…]) is calculated by considering the amount of protein in the incubation: CL_[…] [μl/min/mg protein]=(Ln 2/(half-life [min]*protein content [mg/ml]))*1000. For better across species comparison the predicted clearance is expressed as percent of the liver blood flow [% QH] in the individual species. In general, high stability (corresponding to low % QH) of the compounds across species is desired.

For a further data set, the system named is GM-CSF/pSTAT5. The data set is described as follows: Cytokine function assay GM-CSF/pSTAT5 in lysed whole blood cells. The class given is cell-based. The settings on record: Table 3b, comparator compounds; read-out: IC50 GM-CSF. How it is done: as §3
GM-CSF/pSTAT5: • Whole blood from a healthy donor was lysed to remove red blood cells. Cells were plated onto a 96 well plate. Compound was added and incubated for 1 hour (at 37° C.). After 1 hour, cells were stimulated with GM-CSF for 15 minutes. Cells were fixed and stained with anti-pSTAT5 antibody. After staining, cells were read on a Beckman-Coulter CytoFLEX.

Another data set has as its target PDE4B (Homo sapiens (Human), UniProt Q07343). In words: PDE4B inhibition. The class given is biochemical.
[2] abbreviates: PBMC, read-out: IC50 IL-4, Table 3a.
[3] abbreviates: Table 3a, 1 μM, 1 mg/ml microsomal protein.
Where [4] appears, read: Table 3b, comparator compounds, read-out: IC50 IL-4.

Structures can show the parent of a compound that is named as a salt. Where two headings read alike, the source gives them in different places.

Sequence of PDE4B (Q07343 whole entry, species assumed): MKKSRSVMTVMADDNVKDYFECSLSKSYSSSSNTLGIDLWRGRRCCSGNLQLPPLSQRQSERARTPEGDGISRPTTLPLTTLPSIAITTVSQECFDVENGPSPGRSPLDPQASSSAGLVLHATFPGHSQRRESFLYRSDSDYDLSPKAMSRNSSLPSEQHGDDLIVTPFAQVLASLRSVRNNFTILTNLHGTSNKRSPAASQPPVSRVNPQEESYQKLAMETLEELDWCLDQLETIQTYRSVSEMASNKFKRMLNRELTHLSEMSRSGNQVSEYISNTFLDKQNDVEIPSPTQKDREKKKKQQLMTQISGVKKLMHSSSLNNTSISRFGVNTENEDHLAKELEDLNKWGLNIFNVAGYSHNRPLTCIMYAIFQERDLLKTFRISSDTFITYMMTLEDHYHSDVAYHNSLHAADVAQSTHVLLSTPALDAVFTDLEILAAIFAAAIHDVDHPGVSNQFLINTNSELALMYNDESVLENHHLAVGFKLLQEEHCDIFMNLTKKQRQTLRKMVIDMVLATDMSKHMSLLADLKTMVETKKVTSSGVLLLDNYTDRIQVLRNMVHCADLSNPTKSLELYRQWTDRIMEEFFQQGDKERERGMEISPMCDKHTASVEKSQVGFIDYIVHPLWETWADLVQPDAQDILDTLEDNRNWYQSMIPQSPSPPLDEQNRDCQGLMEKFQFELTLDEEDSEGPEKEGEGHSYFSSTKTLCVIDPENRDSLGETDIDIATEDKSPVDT
Sequence of JAK2 (O60674 whole entry, species assumed): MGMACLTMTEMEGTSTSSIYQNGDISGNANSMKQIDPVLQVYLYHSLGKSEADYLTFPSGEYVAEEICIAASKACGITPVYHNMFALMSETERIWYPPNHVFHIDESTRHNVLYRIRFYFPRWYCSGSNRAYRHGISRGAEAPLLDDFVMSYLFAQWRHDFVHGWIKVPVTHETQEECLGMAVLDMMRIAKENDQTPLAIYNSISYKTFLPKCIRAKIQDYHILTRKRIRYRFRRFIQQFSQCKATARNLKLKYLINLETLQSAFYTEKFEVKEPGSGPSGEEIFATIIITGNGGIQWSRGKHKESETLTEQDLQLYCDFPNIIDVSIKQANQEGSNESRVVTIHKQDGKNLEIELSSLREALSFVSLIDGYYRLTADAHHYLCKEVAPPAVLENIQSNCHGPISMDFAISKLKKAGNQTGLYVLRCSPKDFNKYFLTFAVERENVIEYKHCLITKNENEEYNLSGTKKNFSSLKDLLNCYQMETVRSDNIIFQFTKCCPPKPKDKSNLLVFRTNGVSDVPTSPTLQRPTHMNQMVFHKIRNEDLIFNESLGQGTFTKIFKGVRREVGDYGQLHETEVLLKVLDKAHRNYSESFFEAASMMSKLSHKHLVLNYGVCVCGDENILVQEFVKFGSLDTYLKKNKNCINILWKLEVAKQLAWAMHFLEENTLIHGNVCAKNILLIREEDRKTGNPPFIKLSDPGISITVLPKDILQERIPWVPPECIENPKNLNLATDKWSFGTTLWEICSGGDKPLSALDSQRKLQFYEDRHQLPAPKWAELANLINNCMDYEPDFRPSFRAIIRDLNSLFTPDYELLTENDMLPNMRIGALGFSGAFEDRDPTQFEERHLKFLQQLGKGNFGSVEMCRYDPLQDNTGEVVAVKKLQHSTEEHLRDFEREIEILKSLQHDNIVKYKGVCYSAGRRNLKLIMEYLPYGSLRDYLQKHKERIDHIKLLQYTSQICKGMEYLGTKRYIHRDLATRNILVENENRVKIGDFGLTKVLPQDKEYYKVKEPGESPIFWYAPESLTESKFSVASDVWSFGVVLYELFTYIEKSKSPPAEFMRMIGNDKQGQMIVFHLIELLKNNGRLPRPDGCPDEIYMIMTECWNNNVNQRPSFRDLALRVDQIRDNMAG
Sequence of JAK1 (P23458 whole entry, species assumed): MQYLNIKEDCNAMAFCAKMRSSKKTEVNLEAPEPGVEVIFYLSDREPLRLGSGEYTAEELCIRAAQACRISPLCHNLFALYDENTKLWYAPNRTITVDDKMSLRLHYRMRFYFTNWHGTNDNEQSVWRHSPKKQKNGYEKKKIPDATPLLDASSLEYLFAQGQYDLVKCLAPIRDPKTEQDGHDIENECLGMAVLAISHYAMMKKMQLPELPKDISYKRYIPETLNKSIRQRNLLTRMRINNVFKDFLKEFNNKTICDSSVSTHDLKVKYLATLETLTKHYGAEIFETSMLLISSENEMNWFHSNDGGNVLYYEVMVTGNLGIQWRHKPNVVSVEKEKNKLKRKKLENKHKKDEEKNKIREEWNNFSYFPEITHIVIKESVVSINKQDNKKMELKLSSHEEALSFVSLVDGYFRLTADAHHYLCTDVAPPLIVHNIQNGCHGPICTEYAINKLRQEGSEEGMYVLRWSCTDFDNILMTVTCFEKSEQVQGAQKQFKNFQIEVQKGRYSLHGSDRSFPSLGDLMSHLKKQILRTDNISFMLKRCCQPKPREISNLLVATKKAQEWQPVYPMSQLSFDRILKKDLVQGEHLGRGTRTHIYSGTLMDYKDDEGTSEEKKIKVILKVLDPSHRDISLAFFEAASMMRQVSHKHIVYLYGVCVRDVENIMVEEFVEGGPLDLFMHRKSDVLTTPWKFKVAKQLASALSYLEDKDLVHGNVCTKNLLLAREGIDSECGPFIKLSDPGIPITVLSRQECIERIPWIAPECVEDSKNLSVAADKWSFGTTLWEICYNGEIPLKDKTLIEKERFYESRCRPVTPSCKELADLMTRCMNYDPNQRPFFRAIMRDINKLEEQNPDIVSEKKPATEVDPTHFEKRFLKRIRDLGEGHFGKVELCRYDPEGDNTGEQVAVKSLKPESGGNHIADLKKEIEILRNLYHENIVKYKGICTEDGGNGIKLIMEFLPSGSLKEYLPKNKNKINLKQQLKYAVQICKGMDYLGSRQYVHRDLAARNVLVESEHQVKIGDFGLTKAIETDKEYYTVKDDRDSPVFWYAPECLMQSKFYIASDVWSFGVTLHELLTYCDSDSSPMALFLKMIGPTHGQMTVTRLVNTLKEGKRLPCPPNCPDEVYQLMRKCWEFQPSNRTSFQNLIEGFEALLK

As usually defined, the IC50 is the midpoint of a concentration-inhibition curve. As to `Cc1cnc(Nc2cc(F)c3c(c2)C=CB(O)O3)nc1N[C@@H]1COCC[C@H]1C#N` (single isomer, unassigned) [Example 036a, (trans)-3-((2-((8-fluoro-2-hydroxy-2H-benzo[e][1,2]oxaborinin-6-yl)amino)-5-methylpyrimidin-4-yl)amino)tetrahydro-2H-pyran-4-carbonitrile], the 50% inhibitory concentration (IC50) amounted to 0.3 nM at JAK1 (Table 3a), 4.8 nM at JAK2 (Table 3a) and 158 nM in the data set on IL-4/pSTAT6 (setting [2]). Moreover, the “Dog LM QH” value in data set [1] (setting [3]) was 33.1%.

For `Cc1cnc(Nc2cc(Cl)c3c(c2)COB3O)nc1NC1CCCCC1` [Example C012], the IC50 was found to be 0.1 nM on JAK1 (Table 3b, comparator compounds); 6.5 nM at JAK2 (Table 3b, comparator compounds); 224 nM in the data set with IL-4/pSTAT6 (setting [4]); 1780 nM in the data set with GM-CSF/pSTAT5. In addition, the “Dog LM QH” value in data set [1] (Table 3b, comparator compounds) is under 19.9%.

Regarding `Cc1cnc(Nc2cc(Cl)c3c(c2)C(C(C)C)=CB(O)O3)nc1N[C@H]1COCC[C@@H]1C#N` (single isomer, unassigned) [Example 040b, (trans)-3-((2-((8-chloro-2-hydroxy-4-isopropyl-2H-benzo[e][1,2]oxaborinin-6-yl)amino)-5-methylpyrimidin-4-yl)amino)tetrahydro-2H-pyran-4-carbonitrile], the IC50 at JAK1 (Table 3a) was found to be 1.1 nM; on JAK2 (Table 3a), 16.7 nM; in the data set on IL-4/pSTAT6 (setting [2]), 1410 nM. Besides, the “Dog LM QH” value in data set [1] (setting [3]) is 47.4%.

In the case of `OB1OCc2cc(Nc3ncc(C(F)(F)F)c(NC4CCCC4)n3)ccc21` [Example C019], the concentration for half-maximal inhibition (IC50) turned out to be 29.5 nM at JAK1 (Table 3b, comparator compounds); 171 nM on JAK2 (Table 3b, comparator compounds); 275 nM on PDE4B (Table 3b, comparator compounds). The “Inhibition PDE4B @ 1 μM” value on PDE4B (Table 3b, comparator compounds) is listed as 90%. Further, the “Dog LM QH” value in data set [1] (Table 3b, comparator compounds) is 73.8%.

Take `OB1OCc2cc(Nc3ncc(C(F)(F)F)c(NC4CCCCC4)n3)ccc21` [Example C020]: the 50% inhibitory concentration (IC50) is 44.1 nM on JAK1 (Table 3b, comparator compounds); 397 nM on JAK2 (Table 3b, comparator compounds); 37.6 nM against PDE4B (Table 3b, comparator compounds). Further, the “Dog LM QH” value in data set [1] (Table 3b, comparator compounds) is on record as under 19.9%.

As to `OB1OCc2cc(Nc3ncc(F)c(NC4CCCCC4)n3)ccc21` [Example C017], the IC50 on JAK1 (Table 3b, comparator compounds) was found to be 11.2 nM; on JAK2 (Table 3b, comparator compounds), 1850 nM; in the data set on IL-4/pSTAT6 (setting [4]), 1640 nM; with GM-CSF/pSTAT5, 10000 nM. Further, the “Dog LM QH” value in data set [1] (Table 3b, comparator compounds) is 53.5%.

With `OB1OCc2cc(Nc3ncc(Cl)c(NC4CCCC4)n3)cc(F)c21` [Example C015], the IC50 came to 0.8 nM at JAK1 (Table 3b, comparator compounds); 26.5 nM on JAK2 (Table 3b, comparator compounds); 85.7 nM on PDE4B (Table 3b, comparator compounds). The “Dog LM QH” value in data set [1] (Table 3b, comparator compounds) was 67.2%.

As for `Cc1cnc(Nc2ccc3c(c2)C=CB(O)O3)nc1N[C@@H]1COCC[C@H]1C#N` (relative stereo) [Example 035, (trans)-3-[[2-[(2-hydroxy-1,2-benzoxaborinin-6-yl)amino]-5-methyl-pyrimidin-4-yl]amino]tetrahydropyran-4-carbonitrile], the results for the half-inhibitory concentration (IC50) on JAK1 (Table 3a), on JAK2 (Table 3a) and at PDE4B (Table 3a) were 0.7 nM, 8.8 nM and 320 nM, respectively. In addition, the “Dog LM QH” value in data set [1] (setting [3]) was 43.7%.

Turning to `Cc1cnc(Nc2cc3c(c(C(F)(F)F)c2)OB(O)C=C3)nc1N[C@@H]1COCC[C@H]1C#N` (relative stereo) [Example 037, (trans)-3-[[2-[[2-hydroxy-8-(trifluoromethyl)-1,2-benzoxaborinin-6-yl]amino]-5-methyl-pyrimidin-4-yl]amino]tetrahydropyran-4-carbonitrile], the half-maximal inhibitory concentration (IC50) on JAK1 (Table 3a) turned out to be 3.1 nM; on JAK2 (Table 3a), 18.5 nM; in the data set on IL-4/pSTAT6 (setting [2]) it was 919 nM. In data set [1] (setting [3]), the “Dog LM QH” value is 19.9%.

For `Cc1cnc(Nc2ccc3c(c2)C(C(C)C)=CB(O)O3)nc1N[C@H]1COCC[C@@H]1C#N` (single isomer, unassigned) [Example 039a, (trans)-3-((2-((2-hydroxy-4-isopropyl-2H-benzo[e][1,2]oxaborinin-6-yl)amino)-5-methylpyrimidin-4-yl)amino)tetrahydro-2H-pyran-4-carbonitrile], the IC50 on JAK1 (Table 3a) is 1.1 nM; on JAK2 (Table 3a) it was 18.9 nM; with IL-4/pSTAT6 (setting [2]), 265 nM. Also, the “Dog LM QH” value in data set [1] (setting [3]) is reported as 78.4%.

On to `OB1OCc2cc(Nc3ncc(Cl)c(NC4CCCCC4)n3)ccc21` [Example C018], for which the concentration for half-maximal inhibition (IC50) at JAK2 (Table 3b, comparator compounds) came to 118 nM; on PDE4B (Table 3b, comparator compounds) it was 108 nM. Besides, in data set [1] (Table 3b, comparator compounds), the “Dog LM QH” value is on record as 56.0%.

With `OB1OCc2cc(Nc3nccc(NC4CCCCC4)n3)ccc21` [Example C010], the half-maximal inhibitory concentration (IC50) on JAK1 (Table 3b, comparator compounds) came to 48 nM; on JAK2 (Table 3b, comparator compounds) it was 364 nM; against PDE4B (Table 3b, comparator compounds), 956 nM. Besides, the “Inhibition PDE4B @ 1 μM” value at PDE4B (Table 3b, comparator compounds) turned out to be 53%.

With `Cc1cnc(Nc2cc3c(c(C(F)(F)F)c2)B(O)OC3)nc1N[C@@H]1CCC[C@H]1C#N` (relative stereo) [Example 006, (trans)2-[[2-[[1-hydroxy-7-(trifluoromethyl)-3H-2,1-benzoxaborol-5-yl]amino]-5-methyl-pyrimidin-4-yl]amino]cyclopentanecarbonitrile], the IC50 worked out at 1 nM at JAK1 (Table 3a), 36.6 nM at JAK2 (Table 3a) and 202 nM with IL-4/pSTAT6 (setting [2]). In data set [1] (setting [3]), the “Dog LM QH” value is under 19.9%.

Take `Cc1cnc(Nc2cc3c(c(C(F)(F)F)c2)B(O)OC3)nc1N[C@H]1COC[C@@H]1C#N` (single isomer, unassigned) [Example 043b, (trans)-4-[[2-[[1-hydroxy-7-(trifluoromethyl)-3H-2,1-benzoxaborol-5-yl]amino]-5-methyl-pyrimidin-4-yl]amino]tetrahydrofuran-3-carbonitrile]: the concentration for half-maximal inhibition (IC50) came to 7.6 nM at JAK1 (Table 3a) and 298 nM on JAK2 (Table 3a). In data set [1] (setting [3]), the “Dog LM QH” value is on record as under 19.9%.

With `Cc1cnc(Nc2cc(F)c3c(c2)COB3O)nc1N[C@@H]1COCC[C@H]1C#N` (single isomer, unassigned) [Example 029b, (trans)-3-[[2-[(7-fluoro-1-hydroxy-3H-2,1-benzoxaborol-5-yl)amino]-5-methyl-pyrimidin-4-yl]amino]tetrahydropyran-4-carbonitrile], the values for the IC50 at JAK1 (Table 3a) and on JAK2 (Table 3a) were 4 nM and 89.8 nM, respectively. In data set [1] (setting [3]), the “Dog LM QH” value is given as under 19.9%.

On to `N#C[C@@H]1CCC[C@H]1Nc1nc(Nc2ccc3c(c2)COB3O)ncc1Cl` (relative stereo) [Example 005, (trans)-2-[[5-chloro-2-[(1-hydroxy-3H-2,1-benzoxaborol-5-yl)amino]pyrimidin-4-yl]amino]cyclopentane-1-carbonitrile], for which the IC50 on JAK1 (Table 3a) turned out to be 0.5 nM; at JAK2 (Table 3a), 9 nM; at PDE4B (Table 3a), 44.5 nM. Besides, the “Dog LM QH” value in data set [1] (setting [3]) was under 19.9%.

`Cc1cnc(Nc2cc(Cl)c3c(c2)COB3O)nc1N[C@@H]1CCC[C@H]1C#N` (single isomer, unassigned) [Example 003b, (trans)-2-((2-((7-chloro-1-hydroxy-1,3-dihydrobenzo[c][1,2]oxaborol-5-yl)amino)-5-methylpyrimidin-4-yl)amino)cyclopentane-1-carbonitrile]: the IC50 was 5 nM at JAK1 (Table 3a); 83.1 nM at JAK2 (Table 3a); 74.8 nM in the data set on IL-4/pSTAT6 (read-out: IC50 IL-4, Table 3a). In data set [1] (setting [3]), the “Dog LM QH” value was under 19.9%.

Regarding `CCC(CC)Nc1nc(Nc2cc(Cl)c3c(c2)COB3O)ncc1C` [Example C002], the half-inhibitory concentration (IC50) worked out at 1.1 nM at JAK1 (Table 3b, comparator compounds); 95.7 nM at JAK2 (Table 3b, comparator compounds); 155 nM with IL-4/pSTAT6 (setting [4]); 10000 nM in the data set with GM-CSF/pSTAT5. Moreover, the “Dog LM QH” value in data set [1] (Table 3b, comparator compounds) is listed as under 19.9%.

For `Cc1cnc(Nc2cc(Cl)c3c(c2)COB3O)nc1N[C@@H]1CCCOC1` [Example 030a], the IC50 was found to be 51.1 nM on JAK1 (Table 3a) and 868 nM on JAK2 (Table 3a). The “Dog LM QH” value in data set [1] (setting [3]) is recorded as under 19.9%.

On to `Cc1cnc(Nc2ccc3c(c2)C(C)(C)OB3O)nc1N[C@@H]1CCCC[C@H]1C#N` (relative stereo) [Example 014, (trans)-2-[[2-[(1-hydroxy-3,3-dimethyl-2,1-benzoxaborol-5-yl)amino]-5-methylpyrimidin-4-yl]amino]cyclohexanecarbonitrile hydrochloride], for which the IC50 on JAK1 (Table 3a) worked out at 1.4 nM; at JAK2 (Table 3a), 6.3 nM. Further, the “Dog LM QH” value in data set [1] (setting [3]) is recorded as 48.7%.
